Data taken from patent US20160262923A1, “INTRAUTERINE DELIVERY SYSTEM” (BAYER OY, priority 2013, published 2016).

Key:
Uterine bleeding = experiment: Comparison study in monkey, IUS vehicle vs LNG vs NP, uterine bleeding; format: in vivo, cynomolgus macaques; conditions: for number of bleeding days: first 7 days after insertion neglected
Procedure: Animal Treatments: Adult cycling cynomolgus macaques were monitored to record regular menstrual cycles. Uterine bleeding was assessed daily by vaginal swabs (for sporadic vaginal spotting) and menstrual blood loss by vaginal tampons. After 2 menstrual cycles (˜60 days), the animals were assigned to treatment groups and laparotomized between days 6-8 (ideally day 7) of the follicular phase and an IUS was inserted by hysterotomy into the uterine lumen and sutured in place. Treatment IUS was as follows (n=5-6/group): • Group 1: Vehicle IUS • Group 2: 2 μg/day LNG • Group 3: 5 μg/day LNG • Group 4: 2 μg/day NP • Group 5: 5 μg/day NP Classification of bleeddings: Bleedings were grouped in three categories: a) positive swap or frank menses, which is the most heavy form of bleeding (BB, red colour), b) light positive swab, which is an intermediated type of bleeding (B, purple colour) and c) spot positive swab, which is a very light form of bleeding (S, orange colour). For evaluation of bleeding days, the first 7 days after insertion of the IUS were neglected, because the surgical insertion procedure already causes some bleedings in these days, which is unrelated progestin effects. FIGS. 2 and 3 and Tables 1 and 2 illustrate a comparison of 2 μg/d LNG release with 5 μg/d LNG release for 80 days with the IUS for each animal.

uterine horn = experiment: Weight gain of IUS-carrying uterine horn in ovary-resected rats; format: in vivo; conditions: E2 treated, IUS (rod) in right uterine horn
Procedure: The local uterine action of the a.m. progestin compared to systemic side effects (dissociation) was investigated on the basis of studies using rats (see Example 4; FIGS. 4 to 6). The uterus of ovary-resected rats responded to implantation of progestin-containing IUS (rods) with decidualization and weight gain. The local progestin effects were also determined on the basis of changes in gene expression. […] The left uterine horn remained untreated for internal comparison.

IGFBP-1, Cyp26a1 = experiment: Gene expression analysis of uterine tissue after IUS (rods) in rats; format: in vivo; conditions: local administration by IUS (rods) in rats, identical release rates
Procedure: The left uterine horn remained untreated for internal comparison.
The uterine tissue was homogenized in 800 μl of RLT lysis buffer (Qiagen, Hilden, Germany; #79216) using a Precellys24 homogenizer (Peqlab, Erlangen, Germany; 2.8 mm ceramic beads; #91-PCS-CK28, 2×6000 rpm). 400 μl of the homogenate obtained were used for isolating total RNA, using the QlAsymphony RNA kit (Qiagen, #931636) on a QlAsymphony SP robot for automated sample preparation. Reverse transcription of from 1 μg to 4 μg of total RNA was carried out using the SuperScript III first-strand synthesis system (Invitrogen, Carlsbad, USA; #18080-051) according to the random hexamer procedure.
Gene expression analysis was carried out with from 50 ng to 200 ng of cDNA per reaction on an SDS7900HT Real.time PCR system (Applied Biosystems, Carlsbad, USA) using TaqMan probes (Applied Biosystems; IGFBP-1 Rn00565713_m1, Cyp26a1 Rn00590308_m1, PPIA Rn00690933_m1) and the Fast Blue qPCR MasterMix Plus (Eurogentec, Liege, Belgium; #RT-QP2X-03+FB). For relative quantification, cyclophilin A (PPIA) was used as an endogenous control. Relative expression levels were calculated according to the comparative delta delta CT method.

[1] = Progestational activity compared to LNG
[2] = in vivo
[3] = release rate 2 μg/d, total of 6 test animals
[4] = release rate 5 μg/d, total of group (LNG: 5 test animals)

Compound | number of bleeding days (Uterine bleeding; [3]) | number of bleeding days (Uterine bleeding; [4]) | bleeding reduction compared to LNG (Uterine bleeding; 2 μg/d NP versus 2 μg/d LNG) | bleeding compared to vehicle IUS group (Uterine bleeding; 2 μg/d release group) | bleeding compared to vehicle IUS group (Uterine bleeding; 5 μg/d release group) | local efficacy by way of weight gain in the IUS-carrying uterine horn (uterine horn) | potency in inducing gene expression relative to levonorgestrel (IGFBP-1, Cyp26a1) | progestional activity compared to LNG [1] | break-down rate [2] | systemic stability / plasma clearance compared to LNG [2]
C#C[C@]1(O)CC[C@H]2[C@@H]3CCC4=CC(=O)CC[C@@H]4[C@H]3CC[C@@]21CC [LNG, levonorgestrel, reference compound] | 24 days | 4 days |  |  |  |  |  |  |  | 
CC[C@]12CC[C@H]3[C@@H](CCC4=CC(=O)CC[C@@H]43)[C@@H]1[C@@H]1C[C@@H]1[C@@]21CCCO1 [compound A, 18-methyl-15β,16β-methylene-19-nor-20-spirox-4-en-3-one] | 4 days | No bleeding | higher bleeding reduction | marked reduction of bleeding | marked reduction of bleeding | dose-dependent local efficacy | 4- to 7 fold | higher progestional activity | very fast break-down rate | low systemic stability/higher plasma clearance
CC[C@]12CCC3C4CCC(=O)C=C4C4CC4C3C1[C@@H]1C[C@@H]1[C@@]21CCCO1 (stereo partly drawn) [compound B, 18-methyl-6α,7α,15β,16β-dimethylene-19-nor-20-spirox-4-en-3-one] |  |  |  |  |  | dose-dependent local efficacy |  |  | very fast break-down rate | 
